In article PMC7782793, “Hydroxamic acid-modified peptide microarrays for profiling isozyme-selective interactions and inhibition of histone deacetylases” (Nature Communications, 2021):
Several values for one entry are separate records, joined by “and”; a condition that tells them apart may be missing. Identical values can stand only once. Marks after values point to notes of the source that are not given here. Non-standard residues stand in square brackets, D forms with d. Residues, ends and D or L forms follow the SMILES beside them. *: point of attachment. Asu = N[C@@H](CCCCCC(=O)O)C(=O)O; NHOH = ON*

Key:
HDAC1 [1] = molecular target: T1, HDAC1 (Homo sapiens, UniProt Q13547); assay: Recombinant HDAC µSPOT microarray binding assay;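 also: slides with spotted peptides incubated with six HDAC concentrations in HEPES buffer pH 7.4, spot intensities fitted by four-parameter logistic, EC50 as enzyme concentration giving half-maximal binding signal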
T1 construct: HDAC1 (full length, C-terminal His tag, C-terminal FLAG tag, BPS Bioscience, cat. #: 50051); FLAG (C); purchased BPS Bioscience 50051

HDAC3/NCoR2 [2] = molecular target: T2, HDAC3/NCoR2 (Homo sapiens, UniProt O15379); assay: Recombinant HDAC µSPOT microarray binding assay;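 also: peptide spots on cellulose slides incubated with rising HDAC enzyme concentrations, imaged together, four-parameter logistic fit, EC50 is enzyme concentration giving half-maximal binding signal, two experiments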
T2 construct: HDAC3/NCoR2 (full length, C-terminal His tag, NCoR2 N-terminal GST tag); purchased BPS Bioscience 50003

HDAC8 [3] = molecular target: T3, HDAC8 (Homo sapiens, UniProt Q9BY41); assay: Recombinant HDAC µSPOT microarray binding assay;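 also: peptide µSPOT slides incubated with varying HDAC enzyme concentrations, imaged signal intensity fitted by four-parameter variable-slope regression, EC50 is enzyme concentration giving half-maximal binding, pH 7.4 HEPES buffer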
T3 construct: HDAC8 (full length, C-terminal His tag, BPS Bioscience, cat. #: 50008); purchased BPS Bioscience 50008
T3 sequence (Q9BY41 1-377): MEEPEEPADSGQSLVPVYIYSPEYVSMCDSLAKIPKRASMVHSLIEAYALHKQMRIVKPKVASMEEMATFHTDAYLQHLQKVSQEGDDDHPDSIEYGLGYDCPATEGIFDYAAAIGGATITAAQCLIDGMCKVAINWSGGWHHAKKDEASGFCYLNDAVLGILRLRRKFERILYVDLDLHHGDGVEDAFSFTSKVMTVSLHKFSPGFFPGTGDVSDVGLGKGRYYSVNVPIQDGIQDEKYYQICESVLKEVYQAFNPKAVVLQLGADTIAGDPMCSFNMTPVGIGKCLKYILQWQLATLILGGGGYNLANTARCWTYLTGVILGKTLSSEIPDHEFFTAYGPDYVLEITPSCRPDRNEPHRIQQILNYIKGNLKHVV

HDAC1 [4] = molecular target: T1, HDAC1; assay: HDAC inhibition assay (fluorogenic, Ac-Leu-Gly-Lys(Ac)-AMC); assay type: biochemical; details: for HDAC1 dose-response data (relative enzyme activity), Fig. 6 + S. Fig. 10: duplicate columns
HDAC2 = molecular target: T4, HDAC2 (Homo sapiens, UniProt Q92769); assay: as above; assay type: biochemical; details: for HDAC2 dose-response data (relative enzyme activity), Fig. 6 + S. Fig. 10: duplicate columns
T4 construct: HDAC2 (full length, C-terminal His tag, BPS Bioscience, cat. #: 50002); purchased BPS Bioscience 50002

HDAC3/NCoR2 [5] = molecular target: T2, HDAC3/NCoR2; assay: as above; assay type: biochemical; details: for HDAC3 dose-response data (relative enzyme activity), Fig. 6 + S. Fig. 10: duplicate columns
HDAC8 [6] = molecular target: T3, HDAC8; assay: HDAC inhibition assay (fluorogenic, Ac-Leu-Gly-Lys(Tfa)-AMC); assay type: biochemical; details: for HDAC8 dose-response data (relative enzyme activity, replicate values), Fig. 6 + S. Fig. 10: two replicate columns per inhibitor; for HDAC8 dose-response data (relative enzyme activity), Fig. 6 + S. Fig. 10: duplicate columns
HDAC6 = molecular target: T5, HDAC6 (Homo sapiens, UniProt Q9UBN7); assay: HDAC inhibition assay (fluorogenic, Ac-Leu-Gly-Lys(Ac)-AMC); assay type: biochemical; details: HDAC6, replicates
T5 construct: HDAC6 (full length, BPS Bioscience, cat. #: 50056); purchased BPS Bioscience 50056
T5 sequence (Q9UBN7 1-1215): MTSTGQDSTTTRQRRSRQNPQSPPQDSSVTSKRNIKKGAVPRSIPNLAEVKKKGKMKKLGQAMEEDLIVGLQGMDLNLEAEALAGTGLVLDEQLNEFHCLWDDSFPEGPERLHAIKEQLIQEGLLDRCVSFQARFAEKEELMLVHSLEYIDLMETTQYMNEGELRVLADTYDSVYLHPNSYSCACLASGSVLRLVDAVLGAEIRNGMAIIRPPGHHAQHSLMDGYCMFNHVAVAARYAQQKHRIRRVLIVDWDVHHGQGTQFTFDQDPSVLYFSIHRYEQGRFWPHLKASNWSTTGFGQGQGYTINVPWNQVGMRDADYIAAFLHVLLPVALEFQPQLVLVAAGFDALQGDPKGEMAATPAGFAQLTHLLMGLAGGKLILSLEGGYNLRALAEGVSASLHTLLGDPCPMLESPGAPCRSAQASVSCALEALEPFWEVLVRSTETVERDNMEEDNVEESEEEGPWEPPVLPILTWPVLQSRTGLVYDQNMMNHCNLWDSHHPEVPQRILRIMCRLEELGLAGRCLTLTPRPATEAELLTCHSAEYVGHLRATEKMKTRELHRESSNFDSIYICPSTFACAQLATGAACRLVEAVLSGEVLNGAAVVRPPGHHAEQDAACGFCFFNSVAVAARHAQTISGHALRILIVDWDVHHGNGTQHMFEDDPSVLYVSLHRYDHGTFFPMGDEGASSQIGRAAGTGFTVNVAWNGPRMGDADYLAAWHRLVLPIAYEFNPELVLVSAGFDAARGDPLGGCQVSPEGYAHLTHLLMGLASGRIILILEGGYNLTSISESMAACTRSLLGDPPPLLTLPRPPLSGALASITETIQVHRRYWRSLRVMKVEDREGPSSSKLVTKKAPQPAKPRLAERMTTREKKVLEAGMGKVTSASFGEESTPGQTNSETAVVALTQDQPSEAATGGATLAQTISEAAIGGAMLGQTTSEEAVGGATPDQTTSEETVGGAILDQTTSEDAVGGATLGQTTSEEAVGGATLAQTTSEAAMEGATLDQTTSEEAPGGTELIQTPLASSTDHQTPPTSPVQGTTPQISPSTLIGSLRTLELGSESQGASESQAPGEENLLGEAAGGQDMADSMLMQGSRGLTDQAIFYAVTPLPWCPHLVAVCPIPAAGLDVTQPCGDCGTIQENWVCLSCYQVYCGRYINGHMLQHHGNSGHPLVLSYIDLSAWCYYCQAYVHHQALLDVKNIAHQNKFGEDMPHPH

[7] = log[inhibitor(M)] -10,5850266520292*, whole line marked with asterisks

T1 sequence (Q13547 whole entry): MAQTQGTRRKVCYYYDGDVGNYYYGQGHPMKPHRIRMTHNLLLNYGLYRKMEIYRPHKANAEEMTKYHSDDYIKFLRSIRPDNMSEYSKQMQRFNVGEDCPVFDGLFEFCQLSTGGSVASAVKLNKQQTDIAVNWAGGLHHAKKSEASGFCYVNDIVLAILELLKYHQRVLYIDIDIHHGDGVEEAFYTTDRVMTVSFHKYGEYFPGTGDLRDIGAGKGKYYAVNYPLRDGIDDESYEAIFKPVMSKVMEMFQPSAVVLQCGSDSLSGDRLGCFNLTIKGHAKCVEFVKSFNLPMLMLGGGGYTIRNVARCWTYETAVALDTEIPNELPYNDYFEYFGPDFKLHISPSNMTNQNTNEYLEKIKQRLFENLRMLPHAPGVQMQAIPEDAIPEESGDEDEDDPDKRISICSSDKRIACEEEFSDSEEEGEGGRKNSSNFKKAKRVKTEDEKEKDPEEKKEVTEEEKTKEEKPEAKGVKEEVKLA
T2 sequence (O15379 whole entry): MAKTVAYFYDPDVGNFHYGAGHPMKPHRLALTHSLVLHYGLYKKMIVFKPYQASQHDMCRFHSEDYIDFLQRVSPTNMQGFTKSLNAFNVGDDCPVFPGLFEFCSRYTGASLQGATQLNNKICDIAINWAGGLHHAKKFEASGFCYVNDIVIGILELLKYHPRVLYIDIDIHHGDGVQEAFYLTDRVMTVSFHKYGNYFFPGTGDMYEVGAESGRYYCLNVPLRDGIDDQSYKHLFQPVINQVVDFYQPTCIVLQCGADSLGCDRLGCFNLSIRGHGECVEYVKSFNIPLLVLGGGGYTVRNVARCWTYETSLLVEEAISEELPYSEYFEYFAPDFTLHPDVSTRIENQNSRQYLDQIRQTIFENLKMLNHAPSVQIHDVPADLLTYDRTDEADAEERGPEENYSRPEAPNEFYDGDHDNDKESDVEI
T2 sequence (Q9Y618 389-480 partner limits assumed): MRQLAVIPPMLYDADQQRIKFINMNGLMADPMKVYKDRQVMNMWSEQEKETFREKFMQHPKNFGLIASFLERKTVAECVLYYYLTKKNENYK
T4 sequence (Q92769 whole entry): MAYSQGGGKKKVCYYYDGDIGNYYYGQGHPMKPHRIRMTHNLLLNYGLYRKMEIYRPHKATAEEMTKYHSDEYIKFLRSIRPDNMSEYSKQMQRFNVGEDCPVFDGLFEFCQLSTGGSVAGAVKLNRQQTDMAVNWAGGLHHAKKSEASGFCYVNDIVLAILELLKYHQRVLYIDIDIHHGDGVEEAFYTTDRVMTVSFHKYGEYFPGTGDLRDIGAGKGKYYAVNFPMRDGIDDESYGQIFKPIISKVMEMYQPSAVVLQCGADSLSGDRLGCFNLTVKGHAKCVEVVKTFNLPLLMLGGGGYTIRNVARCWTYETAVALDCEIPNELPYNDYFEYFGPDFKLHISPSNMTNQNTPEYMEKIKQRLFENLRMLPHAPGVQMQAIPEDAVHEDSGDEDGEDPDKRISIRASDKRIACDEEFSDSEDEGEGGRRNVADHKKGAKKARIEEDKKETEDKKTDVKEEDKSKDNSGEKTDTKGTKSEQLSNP

CC(=O)N[C@@H](C)C(=O)N1CCC[C@H]1C(=O)N[C@@H](C)C(=O)N1CCC[C@H]1C(=O)N[C@@H](CCCCN)C(=O)N[C@@H](CCCCCC(=O)NO)C(=O)NCC(=O)N[C@@H](CO)C(=O)N[C@@H](CCCCN)C(=O)N[C@@H](CCCCN)C(=O)N[C@@H](C)C(=O)N[C@H](C(=O)N[C@H](C(=O)N[C@@H](CCCCN)C(=O)N[C@@H](C)C(=O)N[C@@H](CCC(N)=O)C(=O)N[C@@H](Cc1c[nH]c2ccccc12)C(N)=O)[C@@H](C)O)C(C)C [10a] (Ac-APAPK[Asu](NHOH)GSKKAVTKAQW-NH2)
EC50 (HDAC1 [1]): 8.71 nM | EC50 (HDAC3/NCoR2 [2]): 3.09 nM | EC50 (HDAC8 [3]): > 25.1 nM | Ki (HDAC1 [4]): 111 ± 2 nM | HDAC1 dose-response data (relative enzyme activity), Fig. 6 + S. Fig. 10 (HDAC1 [4]; log[inhibitor(M)] -4.30103): 5.334 and 4.212 | HDAC1 dose-response data (relative enzyme activity), Fig. 6 + S. Fig. 10 (HDAC1 [4]; log[inhibitor(M)] -5.69897): 29.499 and 30.3493 | HDAC1 dose-response data (relative enzyme activity), Fig. 6 + S. Fig. 10 (HDAC1 [4]; log[inhibitor(M)] -6.39794): 63.3422 and 57.5642 | HDAC1 dose-response data (relative enzyme activity), Fig. 6 + S. Fig. 10 (HDAC1 [4]; log[inhibitor(M)] -7.09691): 92.4396 and 86.4688 | HDAC1 dose-response data (relative enzyme activity), Fig. 6 + S. Fig. 10 (HDAC1 [4]; log[inhibitor(M)] -7.79588): 116.265 and 84.5085 | HDAC1 dose-response data (relative enzyme activity), Fig. 6 + S. Fig. 10 (HDAC1 [4]; log[inhibitor(M)] -8.49485): 113.205 and 105.123 | HDAC1 dose-response data (relative enzyme activity), Fig. 6 + S. Fig. 10 (HDAC1 [4]; log[inhibitor(M)] -9.19382): 116.621 and 108.226 | HDAC1 dose-response data (relative enzyme activity), Fig. 6 + S. Fig. 10 (HDAC1 [4]; log[inhibitor(M)] -9.89279): 112.611 and 105.771 | HDAC1 dose-response data (relative enzyme activity), Fig. 6 + S. Fig. 10 (HDAC1 [4]; [7]): 102,7345* and 100,1809* | HDAC2 dose-response data (relative enzyme activity), Fig. 6 + S. Fig. 10 (HDAC2; log[inhibitor(M)] -5): 21.842 and 17.4503 | HDAC2 dose-response data (relative enzyme activity), Fig. 6 + S. Fig. 10 (HDAC2; log[inhibitor(M)] -5.69897): 44.183 and 59.677 | HDAC2 dose-response data (relative enzyme activity), Fig. 6 + S. Fig. 10 (HDAC2; log[inhibitor(M)] -7.79588): 120.227 and 109.311 | HDAC2 dose-response data (relative enzyme activity), Fig. 6 + S. Fig. 10 (HDAC2; [7]): 109,81* and 112,306* | Ki (HDAC2; resynthesized peptide in solution, Cheng-Prusoff, n = 2): 239 ± 4 nM | Ki (HDAC3/NCoR2 [5]): 51.2 ± 0.9 nM | HDAC3 dose-response data (relative enzyme activity), Fig. 6 + S. Fig. 10 (HDAC3/NCoR2 [5]; log[inhibitor(M)] -4.30103): 2.766 and 1.97 | HDAC3 dose-response data (relative enzyme activity), Fig. 6 + S. Fig. 10 (HDAC3/NCoR2 [5]; log[inhibitor(M)] -5): 10.2945 and 7.913 | HDAC3 dose-response data (relative enzyme activity), Fig. 6 + S. Fig. 10 (HDAC3/NCoR2 [5]; log[inhibitor(M)] -5.69897): 26.7937 and 20.8193 | HDAC3 dose-response data (relative enzyme activity), Fig. 6 + S. Fig. 10 (HDAC3/NCoR2 [5]; log[inhibitor(M)] -6.39794): 46.8605 and 38.5396 | HDAC3 dose-response data (relative enzyme activity), Fig. 6 + S. Fig. 10 (HDAC3/NCoR2 [5]; log[inhibitor(M)] -7.09691): 73.2021 and 63.7098 | HDAC3 dose-response data (relative enzyme activity), Fig. 6 + S. Fig. 10 (HDAC3/NCoR2 [5]; log[inhibitor(M)] -7.79588): 98.3444 and 77.95 | HDAC3 dose-response data (relative enzyme activity), Fig. 6 + S. Fig. 10 (HDAC3/NCoR2 [5]; log[inhibitor(M)] -8.49485): 104.594 and 95.6609 | HDAC3 dose-response data (relative enzyme activity), Fig. 6 + S. Fig. 10 (HDAC3/NCoR2 [5]; log[inhibitor(M)] -9.19382): 108.819 and 98.0987 | HDAC3 dose-response data (relative enzyme activity), Fig. 6 + S. Fig. 10 (HDAC3/NCoR2 [5]; log[inhibitor(M)] -9.89279): 107.136 and 105.407 | HDAC3 dose-response data (relative enzyme activity), Fig. 6 + S. Fig. 10 (HDAC3/NCoR2 [5]; [7]): 106,9896* and 85,1199* | Ki (HDAC8 [6]): 2240 ± 20 nM | HDAC8 dose-response data (relative enzyme activity, replicate values), Fig. 6 + S. Fig. 10 (HDAC8 [6]; Inhibitor conc [M] -8.49485 (log)): 108.857 and 102.18 | HDAC8 dose-response data (relative enzyme activity, replicate values), Fig. 6 + S. Fig. 10 (HDAC8 [6]; Inhibitor conc [M] -9.19382 (log)): 106.186 and 101.221 | HDAC8 dose-response data (relative enzyme activity, replicate values), Fig. 6 + S. Fig. 10 (HDAC8 [6]; Inhibitor conc [M] given as -7.09691 (log)): 102.611 and 104.497 | HDAC8 dose-response data (relative enzyme activity, replicate values), Fig. 6 + S. Fig. 10 (HDAC8 [6]; Inhibitor conc [M] given as -7.79588 (log)): 103.781 and 99.0423 | HDAC8 dose-response data (relative enzyme activity, replicate values), Fig. 6 + S. Fig. 10 (HDAC8 [6]; Inhibitor conc [M] given as -9.89279 (log)): 110.267 and 101.97 | HDAC8 dose-response data (relative enzyme activity), Fig. 6 + S. Fig. 10 (HDAC8 [6]; Inhibitor conc [M] -3.60206): 2.527 and 3.969 | HDAC8 dose-response data (relative enzyme activity), Fig. 6 + S. Fig. 10 (HDAC8 [6]; Inhibitor conc [M] -4.30103): 9.773 and 11.8218 | HDAC8 dose-response data (relative enzyme activity), Fig. 6 + S. Fig. 10 (HDAC8 [6]; Inhibitor conc [M] -5): 29.4256 and 37.404 | HDAC8 dose-response data (relative enzyme activity), Fig. 6 + S. Fig. 10 (HDAC8 [6]; Inhibitor conc [M] -5.69897): 62.2051 and 60.7878 | HDAC8 dose-response data (relative enzyme activity), Fig. 6 + S. Fig. 10 (HDAC8 [6]; Inhibitor conc [M] -6.39794): 91.1582 and 94.1836 | residual enzymatic activity relative to control wells (HDAC6; log[inhibitor(M)] -4.30103): 1.4 and 0.93 | residual enzymatic activity relative to control wells (HDAC6; log[inhibitor(M)] -5): 3.09 and 2.23 | residual enzymatic activity relative to control wells (HDAC6; log[inhibitor(M)] -5.69897): 13.76 and 8.98 | residual enzymatic activity relative to control wells (HDAC6; log[inhibitor(M)] -6.39794): 36.89 and 30.05 | residual enzymatic activity relative to control wells (HDAC6; log[inhibitor(M)] -7.09691): 68.83 and 58.89 | residual enzymatic activity relative to control wells (HDAC6; log[inhibitor(M)] -7.79588): 90.1 and 83.16 | residual enzymatic activity relative to control wells (HDAC6; log[inhibitor(M)] -8.49485): 98.1 and 88.82 | residual enzymatic activity relative to control wells (HDAC6; log[inhibitor(M)] -9.19382): 100.25 and 95.78 | residual enzymatic activity relative to control wells (HDAC6; log[inhibitor(M)] -9.89279): 102.47 and 98.2 | residual enzymatic activity relative to control wells (HDAC6; log[inhibitor(M)] -10.585): 99,94* and 98,05*
